Patent US20230233566A1, “INHIBITION OF BMI1 ELIMINATES CANCER STEM CELLS AND ACTIVATES ANTITUMOR IMMUNITY” (The Regents of the University of California, priority 2020, published 2023)

Columns and labels:
CD8+ T cells = experiment: Flow cytometry of T cells in lymph nodes, blood and spleen; assay type: in vivo, mouse; settings: blood and spleen of 4NQO-induced HNSCC mice
Source text: PBMCs were isolated from blood using Ficoll-Paque Plus density gradient centrifugation (GE Healthcare Life Sciences, Cat #17-1440). Cervical lymph nodes and spleens were collected and processed into single-cell suspensions through mechanical separation. The isolated or dissociated cells were stained with the specific surface marker antibodies, anti-CD3-FITC (eBioscience, Cat #11-0031), anti-CD4-APC (eBioscience, Cat #17-0041), and anti-CD8-PerCP-Cy5.5 (eBioscience, Cat #45-0081) in PBS with FBS for 30 min at 4° C. Intracellular staining of IFNγ was performed as follows: cells were stimulated with PMA and ionomysin cocktail (eBioscience, Cat #00-4970) for 5 h at 37° C. with 5% CO2. Cells were washed and stained with surface marker antibodies, then fixed and permeabilized with a fixation/permeabilization kit (BD Bioscience, Cat #554715) and intracellularly stained with anti-IFNγ-PE (eBioscience, Cat #12-7311). For proper compensation of flow cytometry channels, single-stain samples were utilized, and for gating, isotype controls were applied. The stained cells were analyzed on the BD FACS flow cytometer, and data analyzed using Flowjo software.

pH2A.X [1] = experiment: pH2A.X immunofluorescent staining in 4NQO-induced HNSCC; parameters: species or system mouse; settings: 4NQO-induced HNSCC in vivo
pH2A.X [2] = experiment: DNA damage in SCC23 and SCC1 cells (pH2A.X, alkaline comet assay); assay type: cell-based, human
Description: (§1) Cells were lysed using the radioimmunoprecipitation assay (RIPA) buffer (Sigma-Aldrich, Cat #R0278) added with a cocktail of protease inhibitors (Thermo Fisher Scientific, Cat ##78430) and phosphatase inhibitors (Sigma-Aldrich, Cat #4906845001). Protein extracts were resolved on a 10% or 15% SDS polyacrylamide gel and then transferred to a polyvinylidene difluoride membrane. Membranes were blocked with 5% milk for 1 h and incubated with primary antibodies overnight at 4° C. Primary antibodies used in this study were: anti-phospho-STING (Ser366) (1:1,000; Cell Signaling Technology, Cat #19781), anti-STING (1:1,000; Cell Signaling Technology, Cat #13647), anti-phospho-TBK1 (Ser172) (1:1,000; Cell Signaling Technology, Cat #5483), anti-TBK1 (1:1,000; Cell Signaling Technology, Cat #3504), anti-phospho-IRF3 (Ser396) (1:1,000; Cell Signaling Technology, Cat #29047), anti-IRF3 (1:1,000; Cell Signaling Technology, Cat #4302), anti-BMI1 (1:1,000; Cell Signaling Technology, Cat #6964), anti-Ubiquityl-Histone H2A (Lys119) (1:1000, Cell Signaling Technology, Cat #8240), anti-phospho Histone H2A.X (Ser139) (1:1000; Cell Signaling Technology, Cat #9718), and anti-GAPDH (1:1000; Cell Signaling Technology, Cat #5174), anti-Histone H3 (1:2,000; Cell Signaling Technology, Cat #4499). The signals were detected using the Clarity Western ECL kit (Bio-Rad, Cat #1705060). To measure the protein levels of CCL5, CXCL9, CXCL10 and CXCL11, cells were treated with PTC209 or shBMI1 knockdown for 48 hr. After treatment, supernatants were collected, and the protein levels of CCL5, CXCL9, CXCL10 and CXCL11 were measured with ELISA (R&D Systems, Cat #DRN00B, DCX900, DIP100, DCX110) according to the manufacturer's instructions.
Single cell gel electrophoresis comet assays were performed using the SCGE assay Kit (Enzo Life Sciences, Cat #ADI-900-166). Following the treatment, cells were mixed with low melting point agarose at a volume ratio of 1:50, and 100 μl of aliquots were loaded onto pre-warmed slides. Slides were incubated in pre-chilled lysis solution for 1 h and then in pre-chilled alkaline solution for 1 h. Electrophoresis was run at 22 V in the TBE buffer for 30 min. Comets were stained with CYGREEN dye for 30 min and imaged. 50 individual cells at least per sample were evaluated in duplicates by the CASP Version 1.2.2 analysis tool.

pIRF3 = pIRF3 immunofluorescent staining in 4NQO-induced HNSCC; parameters: species or system mouse; settings: 4NQO-induced HNSCC in vivo
xenografted HNSCC = settings: human tumor cells in immunodeficient mice; cited from earlier work
SOX2+ CSCs = assay type: in vivo, mouse; settings: only strongly stained cells counted
[3] = test system: cGAS-STING-IRF3 signaling; experiment: Western blot of phosphorylated STING, TBK1, IRF3; assay type: cell-based, human
Description: as §1

BMI-1 = settings: HEK293T cell line; cited from earlier work
[4] = test system: neutrophils and MDSCs (Gr1+CD11b+ cells); experiment: Immunofluorescent staining of neutrophils and MDSCs in HNSCC; assay type: in vivo, mouse; settings: 4NQO-induced HNSCC
BMI1+ CSCs = experiment: In vivo labeling and lineage tracing of Tomato+ BMI1+ CSCs; parameters: species or system mouse; settings: tamoxifen 1 day prior to sacrifice, treated 4 weeks
Description: The immunocomplexes were detected and visualized using related secondary antibodies conjugated with Cy2 or Cy3 (Jackson ImmunoResearch Laboratories). […] At least three sections from each HNSCC lesions were immunostained and analyzed. Tumor cells (>150) and CD8+, Ac-casp3+ and Tomato^+ cells of these tumor cell areas were counted manually in each section. The percentage of CD8+, Ac-casp3^+ and Tomato^+ cells were calculated by dividing those cells with tumor cells and averaged from the sections.

[5] = test system: CSCs isolated from human colorectal cancers; settings: cited from earlier work
BMI1 = BMI1 expression in HNSCC tumors by immunostaining and Western blot; assay type: in vivo, mouse; settings: immunostaining and Western blot of HNSCC tumors
Description: Cells were lysed using the radioimmunoprecipitation assay (RIPA) buffer (Sigma-Aldrich, Cat #R0278) added with a cocktail of protease inhibitors (Thermo Fisher Scientific, Cat ##78430) and phosphatase inhibitors (Sigma-Aldrich, Cat #4906845001). Protein extracts were resolved on a 10% or 15% SDS polyacrylamide gel and then transferred to a polyvinylidene difluoride membrane. Membranes were blocked with 5% milk for 1 h and incubated with primary antibodies overnight at 4° C. […] The signals were detected using the Clarity Western ECL kit (Bio-Rad, Cat #1705060). […] After treatment, supernatants were collected, and the protein levels of CCL5, CXCL9, CXCL10 and CXCL11 were measured with ELISA (R&D Systems, Cat #DRN00B, DCX900, DIP100, DCX110) according to the manufacturer's instructions.

COc1cc(Br)c(Nc2nc(-c3c(C)nc4ncccn34)cs2)c(Br)c1 [PTC209, N-(2,6-dibromo-4-methoxyphenyl)-4-(2-methylimidazo[1,2-a]pyrimidin-3-yl)thiazol-2-amine]
percentage of CD8+ T cells and IFNγ-produced CD8+ T cells (CD8+ T cells): no significant alteration in the percentage of CD8+ T cells and IFNγ-produced CD8+ T cells | pH2A.X in HNSCC (pH2A.X [1]): significantly increased | Olive tail moment (pH2A.X [2]; alkaline comet assay): significantly increased the Olive tail moment in SCC23 and SCC1 cells | pH2A.X (pH2A.X [2]; immunostaining and Western blot): increased pH2A.X in SCC23 and SCC1 cells | pIRF3 in HNSCC (pIRF3): significantly increased | xenografted HNSCC growth (xenografted HNSCC): inhibit xenografted HNSCC growth | number of SOX2+ cells (SOX2+ CSCs): significantly reduced | phosphorylation of STING (S366), TBK1 (S172) and IRF3 (S396) ([3]; SCC1 cells): induction of phosphorylation of STING (S366), TBK1 (S172) and IRF3 (S396) in SCC1 cells | phosphorylation of STING (S366), TBK1 (S172) and IRF3 (S396) ([3]; SCC23 cells): induction of phosphorylation of STING (S366), TBK1 (S172) and IRF3 (S396) in SCC23 cells | IC50 (BMI-1): 500 nM | percentage of neutrophils and MDSCs (Gr1+CD11b+ cells) in HNSCC [4]: does not significantly change the percentage of neutrophils and MDSCs (Gr1^+CD11b^+ cells) in HNSCC | BMI1+ CSCs in HNSCC (in vivo labeling) (BMI1+ CSCs): able to reduce BMI1+ CSCs | colorectal tumor growth and frequency of CSCs ([5]; mouse xenograft models): inhibited colorectal tumor growth and reduced the frequency of CSCs in mouse xenograft models | self-renewal of CSCs ([5]; xenografted nude mouse model): abolish the self-renewal of CSCs isolated from human colorectal cancers | BMI1 expression in tumors (BMI1): Reduction of BMI1 expression
